Experimental findings from publication PMC3445549, “The Mode of Action of Isocyanide in Three Aquatic Organisms, Balanus amphitrite, Bugula neritina and Danio rerio” (PLoS ONE, 2012) are described below.

This assay concerns the target T1, NADH-ubiquinone oxidoreductase (Amphibalanus amphitrite, UniProt A0A6A4V2F0).
T1 construct: gene NDUFV1; native protein from solubilised cyprid lysate; 50 kD band
The experiment in a line: affinity pull-down on Affi-gel […] matrix, SDS-PAGE, UPLC-MS/MS. It is filed as biochemical. As to conditions: isocyanide 2 coupled to matrix via its amine (labelled compound); competed by 0.4 mg/ml free isocyanide 2; cyprid lysate; wash 500 mM NaCl, 1% Triton X100.

T1 sequence (A0A6A4V2F0 27-476): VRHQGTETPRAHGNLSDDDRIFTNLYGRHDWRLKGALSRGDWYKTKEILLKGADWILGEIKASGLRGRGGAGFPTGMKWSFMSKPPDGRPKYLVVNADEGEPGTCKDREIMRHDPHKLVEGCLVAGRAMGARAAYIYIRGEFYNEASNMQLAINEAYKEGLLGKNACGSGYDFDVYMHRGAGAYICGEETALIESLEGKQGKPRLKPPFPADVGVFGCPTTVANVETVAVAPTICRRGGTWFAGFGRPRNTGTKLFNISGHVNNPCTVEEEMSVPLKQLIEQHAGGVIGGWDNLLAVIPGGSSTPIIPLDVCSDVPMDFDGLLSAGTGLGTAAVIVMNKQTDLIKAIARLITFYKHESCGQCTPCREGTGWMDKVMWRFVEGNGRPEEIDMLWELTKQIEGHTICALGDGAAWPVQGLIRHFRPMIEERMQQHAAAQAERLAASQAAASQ

Regarding `[C-]#[N+]C(C)(C)CCCCCCCCCN` [compound 2, 10-isocyano-10-methylundecan-1-amine], the “affinity pull-down on Affi-gel 10 matrix, SDS-PAGE, UPLC-MS/MS” value is given as “NADH-ubiquinone oxidoreductase was specifically identified in this protein band (Table S2)”.
